Results published in patent publication US20260234188A1, “CHEMOKINE-BINDING PEPTIDES” (Oxford University Innovation Limited, priority 2022, published 2026).
“Also recorded” adds a separate entry of the source.

System: panel of up to 42 human chemokines
Test: Phage-display next generation sequencing screen of overlapping hexadecapeptide libraries, chemokines displayed on streptavidin beads
Type: binding
Details: log2E greater than 5, chemokines named by first part of UniProt Entry Name
Description: FIG. 1. Exemplar results from phage display screens. Phage-display libraries were constructed and analysed as described in (McLaughlin, 2013) (Tonikian, 2007). […] FIG. 1A, CC chemokines against evasin A library. FIG. 1B, CXC chemokines against the evasin B library. FIG. 1C, CXC and CX3C chemokines against the viral chemokine binding protein library. FIG. 1D, CXC chemokines against the chemokine library. […] Identified hexadecapeptides were mapped to the position in the originating protein (x-axis) and to fold enrichment (log 2 E, left y-axis). Regions of interest (ROI) were defined where the cumulative residue log 2 E, (clog 2 E:r, right y-axis) exceeds the 95% upper confidence interval of the median clog 2 E:r for the entire protein (indicated as a horizontal dotted line in each panel). Proteins are referred to by their UniProt ID.
Hexadecapeptides were identified using a phage-display next generation sequencing approach (McLaughlin, 2013). Libraries containing a total of 55662 overlapping peptides (from the tick chemokine binding proteins shown in Tables 3A and 3B, the viral chemokine binding proteins shown in Table 3C, the human chemokines shown in Table 3 E, and the human/viral chemokine receptors and other chemokine-binding proteins shown in Table 3D) were first constructed, and then screened against a panel of up to 42 human chemokines, as shown in Table 3F.

| Substance | Chemokines Bound |
| --- | --- |
| CR5246 (FIGIKIVYSFLWGIFP) | CCL20, CCL22,; also recorded: X3CL1, CXL10,; also recorded: CXL11 |
| CR23958 (TVLLSWKVLLTMVWGA) | CCL1, CCL18,; also recorded: CCL20, CCL25,; also recorded: CCL28, CXL10,; also recorded: CXL11, SDF1 |
| CR4760 (FASFYLLDFILALVGN) | CCL22, CXL10,; also recorded: CXL11, SDF1,; also recorded: CXL13, IL8 |
| CR26232 (VVTSVITWVVAVFASL) | CCL17, CCL18,; also recorded: CCL28, CCL8,; also recorded: X3CL1, CXL10,; also recorded: SDF1, CXL14 |
| CR4205 (ELFLAVKIVFSFIWGV) | CCL11, CCL17,; also recorded: CCL18, CCL19,; also recorded: CCL2, CCL20,; also recorded: CCL22, CCL25,; also recorded: CCL28, X3CL1,; also recorded: CXL10, CXL11,; also recorded: SDF1, CXL13,; also recorded: CXL14, IL8 |
| CR23773 (TSVITWLVAVFASVPG) | CCL1, CCL18, and CCL2, CCL20, and CCL8 |
| CR5172 (FGVVTSVITWVVAVFA) | CCL1, CCL18, and CXL10, SDF1, and IL8 |
| CR27448 (YLLNLAISDLLFVFSL) | CCL1, CCL2,; also recorded: CXL11, IL8 |
| CR5236 (FIFVIGMIANSVVVWV) | CCL19, CCL28,; also recorded: CXL11, SDF1,; also recorded: CXL13, IL8 |
| CR26655 (WMNILWAWFIFWWPHG) | CCL17, CCL18,; also recorded: CCL19, CCL20,; also recorded: CCL28, CXL10,; also recorded: SDF1, IL8 |
| CR26801 (WVFIFSSIQLCTVVFL) | CCL1, CCL17,; also recorded: CCL18, CCL19,; also recorded: CCL20, CCL28,; also recorded: X3CL1, SDF1 |
| CR2586 (CILVWLLAFCVSLPDT) | CCL20, CCL28,; also recorded: CXL10, CXL11,; also recorded: CXL14 |

Same assay, conditions: log2E greater than 5, chemokines named by first part of UniProt Entry Name, peptides binding complement C5a (control) excluded

| Substance | Chemokines Bound |
| --- | --- |
| VP5438 (LIKAAILLLAGGLAES) | CCL17, CCL20,; also recorded: CCL25, CCL28,; also recorded: CCL5, CXL10 |
| CR6163 (FSRAIDIIYSLITSSN) | CCL17, CCL18,; also recorded: CCL2, CCL22,; also recorded: CCL28, X3CL1,; also recorded: CXL14 |
| EB2047 (KSDEYELFTVEYCGTN) | CXL10, CXL11,; also recorded: SDF1, CXL14 |
| CR6520 (FWWIFAVIIAIPHFMV) | CXL10, CXL11 |

Same assay, conditions: log2E greater than 5, chemokines named by first part of UniProt entry name, C5a (control) binders excluded

| Substance | Chemokines Bound |
| --- | --- |
| CR12277 (LFSFNRFFCQLVYFIY) | CCL18, CCL25,; also recorded: X3CL1, CXL10 |
| CR20068 (SAVLTLKVILGFFLPF) | CCL17, CCL18,; also recorded: CCL20, CCL25,; also recorded: CCL28, CXL11 |
| CR14850 (LVLGLLLNSLALWVFS) | CCL22, CCL28,; also recorded: CXL10, CXL11,; also recorded: SDF1, CXL14 |
| CR17781 (PSWIISFSVWMAAILL) | CCL17, CCL18, and CCL19, CCL2, and CCL20, CCL22, and CCL25, CCL28, and X3CL1, CXL10, and CXL11, SDF1, and CXL13, CXL14, and IL8 |
| CR20762 (SIYLLNLAISDLLFLF) | CCL22, CCL28,; also recorded: CXL10, CXL11,; also recorded: SDF1, CXL13,; also recorded: CXL14, IL8 |
| CR1923 (ATFKILISIVWGVMPV) | CCL18, CCL28,; also recorded: X3CL1, CXL10,; also recorded: CXL11, SDF1,; also recorded: CXL13, IL8 |
| CR20429 (SFYISLFAGVSFLINL) | CCL22, CCL25,; also recorded: CXL10, CXL11 |
| CK1301 (FIADYFETSSQCSKPS) | CCL20, CXL10,; also recorded: CXL14, IL8 |
| CR12872 (LIYLFLLLWEDTQGWG) | CCL1, CCL18, and CCL19, CCL2, and CCL20, CCL25, and CXL10, SDF1, and IL8 |
| CR21134 (SLSISLLAEVLMFLFP) | CCL17, CCL18, and CCL2, CCL25, and CCL28, X3CL1, and CXL10, CXL11, and SDF1, CXL14, and IL8 |
| CR11720 (LATFKILICIVWGVMP) | CCL17, CCL18,; also recorded: CCL19, CCL20,; also recorded: CCL25, CXL10,; also recorded: CXL14 |
| CR20981 (SLFSALVTLITSLFGS) | CCL1, CCL11,; also recorded: CCL17, CCL18,; also recorded: CCL2, CCL25,; also recorded: CCL8, X3CL1,; also recorded: CXL10, IL8 |
| CR12037 (LENMLFASFYLLDFIL) | CCL22, CXL10,; also recorded: CXL11, SDF1,; also recorded: CXL13, IL8 |
| CR18933 (RFGVWLMSIVGTFLNM) | CCL28, CXL10, and IL8 |
| CR10275 (IYLLNLAISDLFFLLT) | CCL17, CCL18,; also recorded: CCL25, CXL10,; also recorded: CXL13 |
